As a reminder, the cell viability is the share of living cells, or the viability signal relative to a control. The low end stands for a greater loss of cells, the high end for better survival. Broadly, the AUC is the area under the concentration-time curve, a measure of exposure. Read a high AUC as more exposure. What is called half-life is the time in which the quantity being followed falls by half.

These results are taken from US12527880B2, “Cyanine-based telodendrimers and uses for treating cancer” (priority 2018, dated 2026).

The test system of data set [1] is OSC-3 oral cancer cells.
Method: The in vitro cell cytotoxicity, cellular uptake study and combination therapy of samples were assessed on human OSC-3 oral cancer cell line, which was purchased from American type culture collection (ATCC). The cells were cultured with DMEM supplemented with 10% FBS and 1% Penicillin at 37° C. in humidified atmosphere with 5% CO2 for 24 h. Then the samples were added to each well and the cells were incubated at 37° C. for an additional 24 h. After the incubation, the relative cell viabilities were measured by the MTS assay. […] For in vitro chemo-/photothermal combination therapy, OSC-3 cells were seeded into 96-well plates (n=3) and incubated with different samples for 4 h, followed by exposure to an 808 nm NIR laser (0.8 W cm^2, 2 min). Thereafter, the cells were incubated for another 24 h at 37° C. and MTS reagent was added into each well. The relative cell viabilities were then measured by MTS assay. Percentage of cell viability represents drug effect, and 100% means all cells survived. Cell viability was calculated using the following equation: Cell viability (%)=(OD490 nm of treatment/OD490 nm of blank control)×100%. For in vitro cells apoptosis experiment, OSC-3 cells were co-cultured with different samples (DOX concentration: 25 μg mL^−1 and 808 nm NIR laser (0.8 W cm^2, 2 min), if applied) for 8 h. Cells were washed two times and replaced with fresh medium.
Data set [2] in a line: In vivo blood elimination kinetics. On the set-up: species or system female Sprague-Dawley rats.
From the text: In vivo blood elimination kinetics. The jugular vein of female Sprague-Dawley rats was implanted with catheter for blood collection (Harland, Indianapolis, IN, USA). […] All of the blood samples were collected from the catheter at different time point. Micro-plate reader (SpectraMax M2) was used to measure the ICG concentration at absorbance at 808 nm.
[3] abbreviates: female, Sprague-Dawley, rat, blood, iv, 5 mg kg^−1, rats.

Bounds are passed on as bounds.

The molecule `COc1cccc2c1C(=O)c1c(O)c3c(c(O)c1C2=O)C[C@@](O)(C(=O)CO)C[C@@H]3O[C@H]1C[C@H](N)[C@H](O)[C@H](C)O1` [free DOX, doxorubicin] gave a cell viability in data set [1] of 61%.

Regarding `CC1(C)C(/C=C/C=C/C=C/C=C2\N(CCCCS(=O)(=O)O)c3ccc4ccccc4c3C2(C)C)=[N+](CCCCS(=O)(=O)[O-])c2ccc3ccccc3c21` [free ICG, indocyanine green], in data set [2] (after intravenous administration), the “time to clearance from circulation” value is listed as at most 30 min. Besides, in data set [2] (setting [3]), the exposure (AUC) was found to be 12100 ng·h/mL and the half-life was found to be 5.22 min.
